# Results taken from patent US20140088151A1, “ALHYDROXYMETHYL BIARYL BENZOTRIAZOLE DERIVATIVES” (priority 2011, published 2014).
# Target: T1, recombinant human mGluR2 (Homo sapiens, UniProt Q14416)
# T1 construct: expressed in transfected cells
# Assay: FLIPR Ca2+ mobilization assay, potentiation of mGluR2
# Type: cell-based
# Details: CHO dhfr- cells expressing human mGluR2 and Gα16, EC20 glutamate (900 nM)
# Description: Potencies are determined as follows. The compounds of the present invention may be tested in a fluorescence laser imaging plate reader (FLIPR) based assay. This assay is a common functional assay to monitor Ca^2+ mobilization in whole cells expressing recombinant receptor coupled with a promiscuous G-protein. CHO dhfr− cells stably expressing recombinant human mGluR2 and Gα16 loaded with Fluo-4 AM (Invitrogen, Carlsbad Calif.) are treated with varying concentrations of compounds and the Ca^2+ response is monitored on a FLIPR384 (Molecular Devices, Sunnydale Calif.) for agonist activity. The potentiation response is monitored after a subsequent addition of an EC20 concentration of glutamate (900 nM). The maximum calcium response at each concentration of compound for agonism or potentiation are plotted as dose responses curves fitted with a four parameters logistic equation giving EC50 and Hill coefficient using the iterative non linear curve fitting software program.
# T1 sequence (Q14416 19-872): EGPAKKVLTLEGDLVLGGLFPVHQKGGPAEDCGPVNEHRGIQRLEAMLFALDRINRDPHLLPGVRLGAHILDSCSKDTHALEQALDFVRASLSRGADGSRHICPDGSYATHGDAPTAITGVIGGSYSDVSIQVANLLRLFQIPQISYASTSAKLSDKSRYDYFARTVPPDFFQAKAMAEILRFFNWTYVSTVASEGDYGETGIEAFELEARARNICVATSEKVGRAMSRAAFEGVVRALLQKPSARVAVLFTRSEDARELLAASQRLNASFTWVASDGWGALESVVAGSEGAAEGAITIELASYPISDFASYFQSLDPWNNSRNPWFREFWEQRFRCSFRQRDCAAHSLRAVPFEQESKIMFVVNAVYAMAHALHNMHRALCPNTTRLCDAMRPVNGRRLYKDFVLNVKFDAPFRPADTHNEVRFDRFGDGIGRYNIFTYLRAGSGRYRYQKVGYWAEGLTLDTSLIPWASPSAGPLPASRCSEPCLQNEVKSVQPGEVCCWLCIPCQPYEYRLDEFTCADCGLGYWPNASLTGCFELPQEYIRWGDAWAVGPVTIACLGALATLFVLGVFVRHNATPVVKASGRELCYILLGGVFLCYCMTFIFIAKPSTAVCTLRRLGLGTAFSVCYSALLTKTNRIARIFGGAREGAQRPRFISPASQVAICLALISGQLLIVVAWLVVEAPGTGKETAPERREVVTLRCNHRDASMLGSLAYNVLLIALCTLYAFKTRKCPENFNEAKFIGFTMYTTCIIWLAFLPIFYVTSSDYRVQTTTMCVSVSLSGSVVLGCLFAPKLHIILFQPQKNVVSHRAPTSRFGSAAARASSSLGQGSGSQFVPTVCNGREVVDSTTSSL
row,EC50 [nM],Structure (SMILES)
1,3.9,"OC1CCOc2cc(-c3ccc4c(nnn4CC4CC4)c3C(F)(F)F)ccc21 (centres unmarked) [Example 8, 7-[1-(cyclopropylmethyl)-4-(trifluoromethyl)-1H-benzotriazol-5-yl]-3,4-dihydro-2H-chromen-4-ol]"
2,31,"COC(C)c1ccc(-c2ccc3c(nnn3CC3CC3)c2C(F)(F)F)cc1 (centres unmarked) [Example 6, 1-(cyclopropylmethyl)-5-[4-(1-methoxyethyl)phenyl]-4-(trifluoromethyl)-1H-benzotriazole]"
3,8.3,"CC(O)c1ccc(-c2ccc3c(nnn3CC3CC3)c2C(F)(F)F)cc1 (centres unmarked) [Example 5, 1-{4-[1-(cyclopropylmethyl)-4-(trifluoromethyl)-1H-benzotriazol-5-yl]phenyl}ethanol]"
4,2.1,"CC(C)(O)c1ccc(-c2ccc3c(nnn3CC3CC3)c2C(F)(F)F)cc1 [Example 7, 2-{4-[1-(cyclopropylmethyl)-4-(trifluoromethyl)-1H-benzotriazol-5-yl]phenyl}propan-2-ol]"

# The remaining lines, values behind:
row,Structure (SMILES),EC50 [nM]
1,"COC(=O)c1ccc(-c2ccc3c(nnn3CC3CC3)c2C(F)(F)F)c(F)c1 [Example 3, methyl 4-[1-(cyclopropylmethyl)-4-(trifluoromethyl)-1H-benzotriazol-5-yl]-3-fluorobenzoate]",15
2,"OCc1ccc(-c2ccc3c(nnn3CC3CC3)c2C(F)(F)F)cc1 [Example 2, {4-[1-(cyclopropylmethyl)-4-(trifluoromethyl)-1H-benzotriazol-5-yl]phenyl}methanol]",11
3,"OCc1ccc(-c2ccc3c(nnn3CC3CC3)c2C(F)(F)F)c(F)n1 [Example 1, {5-[1-(Cyclopropylmethyl)-4-(trifluoromethyl)-1H-benzotriazol-5-yl]-6-fluoropyridin-2-yl}methanol]",27
4,"OCC(O)c1ccc(-c2ccc3c(nnn3CC3CC3)c2C(F)(F)F)c(F)n1 (centres unmarked) [Example 4, 1-{5-[1-(cyclopropylmethyl)-4-(trifluoromethyl)-1H-benzotriazol-5-yl]-6-fluoropyridin-2-yl}ethane-1,2-diol]",130
